Assay results: patent US20210308211A1, “METHOD OF TREATING VIRAL INFECTIONS” (priority 2020, published 2021)
Non-standard residues stand in square brackets, D forms with d. Residues, ends and D or L forms follow the SMILES beside them. pS = N[C@@H](COP(=O)(O)O)C(=O)O

Experiments:
MRL/lpr mice [1] = test: Survival analysis in MRL/lpr lupus mice; type: in vivo, mouse; conditions: female MRL/lpr mice, intravenous, 20 mice per group; NaCl control 25 weeks
Experimental: It has been determined that this mouse strain carries a mutation in the fas gene. Also, the MRL/lpr is a useful model to study behavioural and cognitive deficits found in autoimmune diseases and the efficacy of immunosuppressive agents [Monneaux et al., 2003, Eur. J. Immunol. 33, 287-296].
Five-week-old female MRL/lpr mice received P140 or peptide P140(MO) intravenously as described (Monneaux et al., 2003, Eur. J. Immunol. 33, 287-296). All experimental protocols were carried out with the approval of the local Institutional Animal Care and Use Committee (CREMEAS). As control, mice were injected with NaCl.
Twenty mice were used for each peptide or NaCl.
Statistical tests were performed using GraphPad Prism version 5.0. The two-way ANOVA test was used to analyze statistical significance of proteinuria differences between control and peptide-treated groups of mice. Survival of control and P140 analogue-treated female MRL/lpr mice was analyzed by the Kaplan-Meier method, and the significance of differences was determined by the log-rank test. For the other variables, statistical significance was assessed using the Student's t-test. p values less than 0.05 were considered significant.

MRL/lpr B cells [2] = test: Cellular uptake of fluorescent P140 in MRL/lpr B cells (flow cytometry, confocal); type: cell-based, mouse
Text: (§1) FIG. 8. Cellular uptake of fluorescent P140 peptide in 5.4% mannitol or 10% trehalose in MRL/lpr B cells and Raji cells as visualized by flow cytometry. B cells were from 12-14 week-old MRL/lpr mice (primary cells); Raji cells are an established cell line derived in 1963 from B-lymphocyte of a patient with Burkitt's lymphoma.
FIG. 9. Confocal images of B cells of FIG. 10. All confocal images were taken in the same microscopic settings. Rab9 (red) identifies the late endosomal compartment where P140 localizes before homing into lysosomes DAPI (blue) identifies DNA.
(§2) For P140 peptide activity, HSC70 binding and endocytosis appear to be important. It is believed that endocytosis must occur through the clathrin route. This implies that peptide+excipient should have a size in the range of 30 to 500 nm in diameter. For example P140+mannitol are in the 100 nm region whereas P140+trehalose are below 10 nm and therefore not effective binding to HSC70. […] B cells were from 12-14 week-old MRL/lpr mice (primary cells); Raji cells are an established cell line derived in 1963 from B-lymphocyte of a patient with Burkitt's lymphoma. […] The confocal images show the late endosomal compartment where P140 localizes before homing into lysosomes; DAPI identifies DNA.

Raji cells = test: Cellular uptake of fluorescent P140 in Raji cells (flow cytometry); type: cell-based, human; conditions: fluorescent peptide in 10% trehalose compared with 5.4% mannitol
Text: as §1, §2

C57BL/6 mice = test: DSS-induced colonic inflammation model; type: in vivo, mouse
Text: Normal mice (C57BL/6; 7 week-old; males) have received the P140 peptide ([…], iv route; 10 mice) or saline only (control group; 10 mice) at days −2 and −1. At day 0, dextran sodium sulfate (DSS; 2-3%) was administrated to induce the disease.
Animals were examined every day for body weight loss, stool consistency, diarrhea, and blood in the feces. The animals were sacrificed around day 14 or at any time if they are very sick (loss >25% body weight). Statistics: Mann-Whitney (exact)

MRL/lpr mice [3] = test: Gougerot-Sjögren syndrome model, salivary glands of MRL/lpr mice; type: in vivo, mouse
Experimental: In this study MRL/lpr female 11-12 week old mice were used with 10 mice per group for statistical analysis. Each mouse received a single injection by retro-orbital, 100 μg of peptide P140 of 100 μl in […]. After 5 days, the mouse blood was collected in heparinized tube and salivary glands (GSS) were removed and placed in Eppendorf tubes containing PBS pH 7.4.
The number of foci site (FS) is determined for each mouse. A focus is defined as an aggregate of 50 or more cells.
The level of inflammation SG is determined semiquantitatively by a scoring system (0-3 scale): Grade 0: no inflammatory cells; Grade 1: few perivascular inflammatory and periductal Infiltrates (<100 cells); Grade 2: moderate number of perivascular inflammatory and periductal Infiltrates (100-500 cells); Grade 3: extensive inflammation with inflammatory foci broad (>500 cells).
Cells of total salivary glands stained with fluorescently were labeled antibodies for 40 min at 4° C., Were Collected data by FACSCalibur.
The weight of salivary glands Was Measured after-excision. DNase I (1 mg/ml) and collagenase D (50 μg/ml) were used to digest the salivary glands. Total cell counts were evaluated after the digestion.
The MRL/lpr mice (10 mice per arm) were injected with peptide P140 (100 μl/mouse iv). Five days after injection the mice were sacrificed and SGs collected as indicated above. The tissue was cut by the cryostat sections of 5 μm. The sections were labeled with hematoxylin/eosin staining is the method most frequently used in tissue histology. The level of inflammation and the number of FS were determined (FIGS. 17 and 18). Representative pictures are from sample control group 4 and group Treated sample (Bar 500 μm).

MRL/lpr B cells [4] = conditions: cited from earlier work
Lewis rats = test: Chronic-EAN rat model of CIDP; conditions: 100 μg/rat i.p.
Experimental: Male Lewis rats, 7-8 weeks old, weighing 250-270 g, purchased from Charles River (Domaine des Oncins, L′Arbresle, France) were used.
Body weight and clinical scores are assessed daily until 60 days post-immunization (dpi). Severity of paresis is graded as follows: 0=no illness; 1=flaccid tail; 2=moderate paraparesis; 3=severe paraparesis; 4=tetraparesis; 5=death.
100 μg/rat P140 peptide in 500 μL water/saline (1:10) were intraperitoneally injected at 5, 7, 9, 13 dpi and 3 times per week from 22 dpi until the end of the study.

[5] = 5 days after one single iv injection
[6] = 5 days after one single iv injection, flow cytometry

CC[C@H](C)[C@H](NC(=O)[C@H](Cc1ccccc1)NC(=O)[C@H](C)NC(=O)[C@H](Cc1ccc(O)cc1)NC(=O)CNC(=O)[C@H](CCCNC(=N)N)NC(=O)[C@@H]1CCCN1C(=O)[C@H](CCCCN)NC(=O)CNC(=O)[C@H](COP(=O)(O)O)NC(=O)[C@H](CCCNC(=N)N)NC(=O)[C@H](CCCCN)NC(=O)[C@H](CO)NC(=O)[C@H](Cc1ccc(O)cc1)NC(=O)[C@@H](NC(=O)[C@H](CCSC)NC(=O)[C@H](Cc1c[nH]cn1)NC(=O)[C@@H](NC(=O)[C@@H](N)CCCNC(=N)N)[C@@H](C)CC)C(C)C)C(=O)N[C@@H](CCC(=O)O)C(=O)N[C@@H](Cc1ccc(O)cc1)C(=O)O [Compound P140] (H-RIHMVYSKR[pS]GKPRGYAFIEY-OH; N-terminus and C-terminus assumed)
Median survival (MRL/lpr mice [1]): 29 weeks | Cellular uptake (flow cytometry) (MRL/lpr B cells [2]; fluorescent peptide in 10% trehalose compared with 5.4% mannitol, MRL/lpr B cells): Much less cellular uptake | Entry into B cells (confocal microscopy) (MRL/lpr B cells [2]; peptide in trehalose compared with mannitol): enters B cells much less | Cellular uptake (flow cytometry) (Raji cells): Much less cellular uptake | DAI (C57BL/6 mice; P140 i.v. days −2 and −1 vs saline, p=0.5386): Little difference | Colon size (C57BL/6 mice; P140 i.v. days −2 and −1 vs saline, reflects decrease of inflammation, p=0.0011): significant increase | Body weight (C57BL/6 mice; between the two groups): No difference | Day at which blood appeared in the feces (C57BL/6 mice; control groups day +6): +8 day | Lymphocytic infiltration in the SGs (MRL/lpr mice [3]; 5 days after one single administration, hematoxylin/eosin): significantly reduced | Total number of cells present in the SGs (MRL/lpr mice [3]; [5]): no apparent effect | Weight of SGs (salivary glands) (MRL/lpr mice [3]; [5]): no statistically significant effect | CD4+T cells in SGs (MRL/lpr mice [3]; [6]): decreased | Total number of B cells in SGs (MRL/lpr mice [3]; [6]): no statistically significant effect | Autophagy markers SQSTM1 and MAP1LC3 (MRL/lpr B cells [4]; MRL/lpr B cells after P140 treatment (Page et al., 2011)): accumulation | Expression of HSPA8 and LAMP-2A (MRL/lpr B cells [4]; MRL/lpr B cells after treating mice (Page et al., 2011; Macri et al., in press)): down-regulated | Chronicity of the disease (Lewis rats): seems abolish the chronicity | Maximal clinical scores (Lewis rats; compared to untreated rats): decreased | Onset of the disease (Lewis rats; compared to untreated rats): delayed | Weight loss during the disease course (Lewis rats; compared to untreated rats): less important
